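Results reflect a 48-hour exposure of cells in 96-well plates to compound at five concentrations. GI50 marks 50% less growth. TGI marks complete inhibition of growth.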
The molecules below were run on A549 NSCLC (assay: NCI-60 cell line screen, 48 h).

Row | Compound | GI50 [µM] | TGI [µM]
1 | CC1(C)N=C(N)N=C(N)N1c1ccc(CCCCc2ccc(S(=O)(=O)F)cc2)c(Cl)c1 | 0.334 | > 44.8
2 | N#CN1CC[C@H](C(=O)Nc2ncc(-c3ccncc3)s2)C1 | 0.262 | > 100
3 | Cn1cc(-c2nonc2-c2cn(C)c3ccccc23)c2ccccc21 | 1.22 | > 100
4 | CN(CCCCCl)P(=O)(OCCS(=O)(=O)CC(NC(=O)CCC(N)C(=O)O)C(=O)NC(C(=O)O)c1ccccc1)OCC1OC(n2cc(F)c(=O)[nH]c2=O)CC1O (centres undefined) | < 0.0506 | > 100
5 | CCN(CCO)CC(C)Nc1ccc([N+](=O)[O-])c2sc3ccccc3c(=O)c12 (centres undefined) | 0.535 | 1.97
6 | O=[N+]([O-])c1cc(S(=O)(=O)Oc2ccccc2)ccc1Cl | 3.43 | 14.5
7 | COC(=O)c1nc(-c2ccccc2)oc1S(=O)(=O)n1nc(C)cc1N | 28.9 | 84
8 | CCCCCn1sc(=O)n(Cc2ccc(CNC(=O)OCc3ccc4cccc(O)c4n3)cc2)c1=O | 2.12 | 5.57
9 | Cn1cncc1CC1COC(=O)C1C(O)c1ccccc1 (centres undefined) | – | > 100

Each molecule was assayed on DU-145 prostate (assay: NCI-60 cell line screen, 48 h).

Row | Compound | GI50 [µM] | TGI [µM]
10 | CC1(C)N=C(N)N=C(N)N1c1ccc(CCCCc2ccc(S(=O)(=O)F)cc2)c(Cl)c1 | 0.484 | 17.5
11 | N#CN1CC[C@H](C(=O)Nc2ncc(-c3ccncc3)s2)C1 | < 0.0238 | 39.7
12 | Cn1cc(-c2nonc2-c2cn(C)c3ccccc23)c2ccccc21 | 1.27 | > 100
13 | CN(CCCCCl)P(=O)(OCCS(=O)(=O)CC(NC(=O)CCC(N)C(=O)O)C(=O)NC(C(=O)O)c1ccccc1)OCC1OC(n2cc(F)c(=O)[nH]c2=O)CC1O (centres undefined) | 0.214 | > 100
14 | CCN(CCO)CC(C)Nc1ccc([N+](=O)[O-])c2sc3ccccc3c(=O)c12 (centres undefined) | 1.24 | 4.9
15 | O=[N+]([O-])c1cc(S(=O)(=O)Oc2ccccc2)ccc1Cl | 1.83 | 3.24
16 | COC(=O)c1nc(-c2ccccc2)oc1S(=O)(=O)n1nc(C)cc1N | 15.9 | 29.3
17 | CCCCCn1sc(=O)n(Cc2ccc(CNC(=O)OCc3ccc4cccc(O)c4n3)cc2)c1=O | 1.6 | 3.09
18 | Cn1cncc1CC1COC(=O)C1C(O)c1ccccc1 (centres undefined) | – | > 100

What follows are molecules tested on IGROV1 ovarian (assay: NCI-60 cell line screen, 48 h).

Row | Compound | GI50 [µM] | TGI [µM]
19 | CC1(C)N=C(N)N=C(N)N1c1ccc(CCCCc2ccc(S(=O)(=O)F)cc2)c(Cl)c1 | 0.0592 | 21.5
20 | N#CN1CC[C@H](C(=O)Nc2ncc(-c3ccncc3)s2)C1 | 0.0351 | 68.4
21 | Cn1cc(-c2nonc2-c2cn(C)c3ccccc23)c2ccccc21 | 1.53 | > 100
22 | CN(CCCCCl)P(=O)(OCCS(=O)(=O)CC(NC(=O)CCC(N)C(=O)O)C(=O)NC(C(=O)O)c1ccccc1)OCC1OC(n2cc(F)c(=O)[nH]c2=O)CC1O (centres undefined) | 0.0884 | > 100
23 | CCN(CCO)CC(C)Nc1ccc([N+](=O)[O-])c2sc3ccccc3c(=O)c12 (centres undefined) | 0.34 | 1.6
24 | O=[N+]([O-])c1cc(S(=O)(=O)Oc2ccccc2)ccc1Cl | 1.77 | 3.22
25 | COC(=O)c1nc(-c2ccccc2)oc1S(=O)(=O)n1nc(C)cc1N | 15.7 | 36.5
26 | CCCCCn1sc(=O)n(Cc2ccc(CNC(=O)OCc3ccc4cccc(O)c4n3)cc2)c1=O | 1.17 | 2.65
27 | Cn1cncc1CC1COC(=O)C1C(O)c1ccccc1 (centres undefined) | – | > 100

These molecules were tested on MCF7 breast (assay: NCI-60 cell line screen, 48 h).

Row | Compound | GI50 [µM] | TGI [µM]
28 | CC1(C)N=C(N)N=C(N)N1c1ccc(CCCCc2ccc(S(=O)(=O)F)cc2)c(Cl)c1 | 0.198 | 14.2
29 | N#CN1CC[C@H](C(=O)Nc2ncc(-c3ccncc3)s2)C1 | < 0.0109 | > 70.2
30 | Cn1cc(-c2nonc2-c2cn(C)c3ccccc23)c2ccccc21 | 0.591 | > 100
31 | CN(CCCCCl)P(=O)(OCCS(=O)(=O)CC(NC(=O)CCC(N)C(=O)O)C(=O)NC(C(=O)O)c1ccccc1)OCC1OC(n2cc(F)c(=O)[nH]c2=O)CC1O (centres undefined) | < 0.01 | –
32 | CCN(CCO)CC(C)Nc1ccc([N+](=O)[O-])c2sc3ccccc3c(=O)c12 (centres undefined) | 0.436 | 4.15
33 | O=[N+]([O-])c1cc(S(=O)(=O)Oc2ccccc2)ccc1Cl | 2.06 | 4.31
34 | COC(=O)c1nc(-c2ccccc2)oc1S(=O)(=O)n1nc(C)cc1N | 6.95 | 27.5
35 | CCCCCn1sc(=O)n(Cc2ccc(CNC(=O)OCc3ccc4cccc(O)c4n3)cc2)c1=O | 1.34 | 3.7
36 | Cn1cncc1CC1COC(=O)C1C(O)c1ccccc1 (centres undefined) | – | > 100

What follows are molecules tested on OVCAR-3 ovarian (assay: NCI-60 cell line screen, 48 h).

Row | Compound | GI50 [µM] | TGI [µM]
37 | CC1(C)N=C(N)N=C(N)N1c1ccc(CCCCc2ccc(S(=O)(=O)F)cc2)c(Cl)c1 | 0.851 | 17.4
38 | N#CN1CC[C@H](C(=O)Nc2ncc(-c3ccncc3)s2)C1 | < 0.0162 | 0.989
39 | Cn1cc(-c2nonc2-c2cn(C)c3ccccc23)c2ccccc21 | 0.402 | 3.42
40 | CN(CCCCCl)P(=O)(OCCS(=O)(=O)CC(NC(=O)CCC(N)C(=O)O)C(=O)NC(C(=O)O)c1ccccc1)OCC1OC(n2cc(F)c(=O)[nH]c2=O)CC1O (centres undefined) | 1.22 | > 84.4
41 | CCN(CCO)CC(C)Nc1ccc([N+](=O)[O-])c2sc3ccccc3c(=O)c12 (centres undefined) | 2.96 | 12.3
42 | O=[N+]([O-])c1cc(S(=O)(=O)Oc2ccccc2)ccc1Cl | 1.49 | 2.85
43 | COC(=O)c1nc(-c2ccccc2)oc1S(=O)(=O)n1nc(C)cc1N | 2.03 | 3.99
44 | CCCCCn1sc(=O)n(Cc2ccc(CNC(=O)OCc3ccc4cccc(O)c4n3)cc2)c1=O | 1.26 | 2.67
45 | Cn1cncc1CC1COC(=O)C1C(O)c1ccccc1 (centres undefined) | – | > 100

Each molecule was assayed on SF-539 CNS (assay: NCI-60 cell line screen, 48 h).

Row | Compound | GI50 [µM] | TGI [µM]
46 | CC1(C)N=C(N)N=C(N)N1c1ccc(CCCCc2ccc(S(=O)(=O)F)cc2)c(Cl)c1 | 0.391 | 13.9
47 | N#CN1CC[C@H](C(=O)Nc2ncc(-c3ccncc3)s2)C1 | < 0.016 | 0.164
48 | Cn1cc(-c2nonc2-c2cn(C)c3ccccc23)c2ccccc21 | 0.559 | 2.19
49 | CN(CCCCCl)P(=O)(OCCS(=O)(=O)CC(NC(=O)CCC(N)C(=O)O)C(=O)NC(C(=O)O)c1ccccc1)OCC1OC(n2cc(F)c(=O)[nH]c2=O)CC1O (centres undefined) | < 0.0105 | 7.74
50 | CCN(CCO)CC(C)Nc1ccc([N+](=O)[O-])c2sc3ccccc3c(=O)c12 (centres undefined) | 3.6 | 19.2
51 | O=[N+]([O-])c1cc(S(=O)(=O)Oc2ccccc2)ccc1Cl | 3.52 | 10.4
52 | COC(=O)c1nc(-c2ccccc2)oc1S(=O)(=O)n1nc(C)cc1N | 14.4 | 27.7
53 | CCCCCn1sc(=O)n(Cc2ccc(CNC(=O)OCc3ccc4cccc(O)c4n3)cc2)c1=O | 1.48 | 2.8
54 | Cn1cncc1CC1COC(=O)C1C(O)c1ccccc1 (centres undefined) | – | > 100

What follows are molecules tested on SK-MEL-2 melanoma (assay: NCI-60 cell line screen, 48 h).

Row | Compound | GI50 [µM] | TGI [µM]
55 | CC1(C)N=C(N)N=C(N)N1c1ccc(CCCCc2ccc(S(=O)(=O)F)cc2)c(Cl)c1 | 2.48 | 20.7
56 | N#CN1CC[C@H](C(=O)Nc2ncc(-c3ccncc3)s2)C1 | < 0.01 | 0.0976
57 | Cn1cc(-c2nonc2-c2cn(C)c3ccccc23)c2ccccc21 | 1.22 | > 100
58 | CN(CCCCCl)P(=O)(OCCS(=O)(=O)CC(NC(=O)CCC(N)C(=O)O)C(=O)NC(C(=O)O)c1ccccc1)OCC1OC(n2cc(F)c(=O)[nH]c2=O)CC1O (centres undefined) | > 49.7 | > 100
59 | CCN(CCO)CC(C)Nc1ccc([N+](=O)[O-])c2sc3ccccc3c(=O)c12 (centres undefined) | 1.23 | 3.64
60 | O=[N+]([O-])c1cc(S(=O)(=O)Oc2ccccc2)ccc1Cl | 10.7 | 26.1
61 | COC(=O)c1nc(-c2ccccc2)oc1S(=O)(=O)n1nc(C)cc1N | 13.7 | 30.5
62 | CCCCCn1sc(=O)n(Cc2ccc(CNC(=O)OCc3ccc4cccc(O)c4n3)cc2)c1=O | 1.72 | 3.47
63 | Cn1cncc1CC1COC(=O)C1C(O)c1ccccc1 (centres undefined) | – | > 100

Each molecule was assayed on SN12C renal (assay: NCI-60 cell line screen, 48 h).

Row | Compound | GI50 [µM] | TGI [µM]
64 | CC1(C)N=C(N)N=C(N)N1c1ccc(CCCCc2ccc(S(=O)(=O)F)cc2)c(Cl)c1 | 0.189 | 16.2
65 | N#CN1CC[C@H](C(=O)Nc2ncc(-c3ccncc3)s2)C1 | < 0.0277 | 38.4
66 | Cn1cc(-c2nonc2-c2cn(C)c3ccccc23)c2ccccc21 | 1.76 | > 100
67 | CN(CCCCCl)P(=O)(OCCS(=O)(=O)CC(NC(=O)CCC(N)C(=O)O)C(=O)NC(C(=O)O)c1ccccc1)OCC1OC(n2cc(F)c(=O)[nH]c2=O)CC1O (centres undefined) | 0.41 | 16.9
68 | CCN(CCO)CC(C)Nc1ccc([N+](=O)[O-])c2sc3ccccc3c(=O)c12 (centres undefined) | 2.15 | 18.4
69 | O=[N+]([O-])c1cc(S(=O)(=O)Oc2ccccc2)ccc1Cl | 3.56 | 13.6
70 | COC(=O)c1nc(-c2ccccc2)oc1S(=O)(=O)n1nc(C)cc1N | 5.64 | 19.7
71 | CCCCCn1sc(=O)n(Cc2ccc(CNC(=O)OCc3ccc4cccc(O)c4n3)cc2)c1=O | 1.49 | 2.82
72 | Cn1cncc1CC1COC(=O)C1C(O)c1ccccc1 (centres undefined) | – | > 100

Each molecule was assayed on SW-620 colon (assay: NCI-60 cell line screen, 48 h).

Row | Compound | GI50 [µM] | TGI [µM]
73 | CC1(C)N=C(N)N=C(N)N1c1ccc(CCCCc2ccc(S(=O)(=O)F)cc2)c(Cl)c1 | 0.0527 | 14.7
74 | N#CN1CC[C@H](C(=O)Nc2ncc(-c3ccncc3)s2)C1 | 0.023 | 19.5
75 | Cn1cc(-c2nonc2-c2cn(C)c3ccccc23)c2ccccc21 | 0.425 | > 100
76 | CN(CCCCCl)P(=O)(OCCS(=O)(=O)CC(NC(=O)CCC(N)C(=O)O)C(=O)NC(C(=O)O)c1ccccc1)OCC1OC(n2cc(F)c(=O)[nH]c2=O)CC1O (centres undefined) | 1.28 | > 64.4
77 | CCN(CCO)CC(C)Nc1ccc([N+](=O)[O-])c2sc3ccccc3c(=O)c12 (centres undefined) | 1.04 | 3.19
78 | O=[N+]([O-])c1cc(S(=O)(=O)Oc2ccccc2)ccc1Cl | 1.56 | 3.59
79 | COC(=O)c1nc(-c2ccccc2)oc1S(=O)(=O)n1nc(C)cc1N | 3.22 | 11.2
80 | CCCCCn1sc(=O)n(Cc2ccc(CNC(=O)OCc3ccc4cccc(O)c4n3)cc2)c1=O | 1.25 | 2.83
81 | Cn1cncc1CC1COC(=O)C1C(O)c1ccccc1 (centres undefined) | – | > 100

The molecules below were run on UACC-62 melanoma (assay: NCI-60 cell line screen, 48 h).

Row | Compound | GI50 [µM] | TGI [µM]
82 | CC1(C)N=C(N)N=C(N)N1c1ccc(CCCCc2ccc(S(=O)(=O)F)cc2)c(Cl)c1 | 0.0559 | 19.6
83 | N#CN1CC[C@H](C(=O)Nc2ncc(-c3ccncc3)s2)C1 | < 0.0172 | 1.32
84 | Cn1cc(-c2nonc2-c2cn(C)c3ccccc23)c2ccccc21 | 0.442 | > 100
85 | CN(CCCCCl)P(=O)(OCCS(=O)(=O)CC(NC(=O)CCC(N)C(=O)O)C(=O)NC(C(=O)O)c1ccccc1)OCC1OC(n2cc(F)c(=O)[nH]c2=O)CC1O (centres undefined) | > 100 | > 100
86 | CCN(CCO)CC(C)Nc1ccc([N+](=O)[O-])c2sc3ccccc3c(=O)c12 (centres undefined) | 1.63 | 12.8
87 | O=[N+]([O-])c1cc(S(=O)(=O)Oc2ccccc2)ccc1Cl | 3.55 | 13.5
88 | COC(=O)c1nc(-c2ccccc2)oc1S(=O)(=O)n1nc(C)cc1N | 13.7 | 28.1
89 | CCCCCn1sc(=O)n(Cc2ccc(CNC(=O)OCc3ccc4cccc(O)c4n3)cc2)c1=O | 1.51 | 2.87
90 | Cn1cncc1CC1COC(=O)C1C(O)c1ccccc1 (centres undefined) | – | > 100
